Measurements published in US8754098B2 (Salix Pharmaceuticals, Ltd., priority 2008, dated 2014).
One block for each compound: values may come before it.

Columns and labels:
Type in all cases: physicochemical
[1] = Automated moisture sorption/desorption (MB / DVS); conditions: for Post-MB XRPD / Final Form post moisture sorption/desorption: sorption from 5% RH to 95% RH, desorption from 95% RH to 5% RH; for wt loss upon equilibration at 5% RH: moisture balance
Procedure: Automated Moisture Sorption/Desorption Moisture sorption/desorption data were collected on a VTI SGA-100 Vapor Sorption Analyzer. Sorption and desorption data were collected over a range of 5% to 95% relative humidity (RH) at 10% RH intervals under a nitrogen purge. Samples were not dried prior to analysis. Equilibrium criteria used for analysis were less than 0.0100% weight change in 5 minutes, with a maximum equilibration time of 3 hours if the weight criterion was not met. Data were not corrected for the initial moisture content of the samples. NaCl and PVP were used as calibration standards.

[2] = Rifaximin drying experiments (solid form by XRPD); conditions: for XRPD Form: vac oven 50° C., 1 day; for solid form after vacuum dried: vacuum dried (Table 1)
From the text: Dried materials obtained by vacuum drying or heating the hydrates were labeled “dry”. […] After a portion of the rifaximin was removed for XRPD analysis the remainder of the sample was dried under vacuum at ambient temperature for approximately one day. Solids were stored in a dessicator prior to analysis by XRPD. (FIG. 9)

[3] = Stressing under various relative humidities (solid form by XRPD); conditions: for RH stability: solid form change after exposing to 58% RH / RH stability: solid form change after exposing to 75% RH: am = amorphous
Procedure: Stressing Under Various Relative Humidities (RH)
The jar was sealed and stored at either ambient temperature or in an oven at elevated temperature.
X-ray powder diffraction (XRPD) analyses were performed using a Shimadzu XRD-6000 X-ray powder diffractometer using Cu Kα radiation. The instrument is equipped with a long fine focus X-ray tube. The tube voltage and amperage were set to 40 kV and 40 mA, respectively. The divergence and scattering slits were set at 1° and the receiving slit was set at 0.15 mm. Diffracted radiation was detected by a NaI scintillation detector. A θ-2θ continuous scan at 3°/min (0.4 sec/0.02° step) from 2.5 to 40°2θ was used. A silicon standard was analyzed to check the instrument alignment. Data were collected and analyzed using XRD-6100/7000 v. 5.0. Samples were prepared for analysis by placing them in a sample holder.
X-ray powder diffraction (XRPD) analyses were performed using an Inel XRG-3000 diffractometer equipped with a CPS (Curved Position Sensitive) detector with a 2θ range of 120°. Real time data were collected using Cu—Kα radiation starting at approximately 4° 2θ at a resolution of 0.03° 2θ. The tube voltage and amperage were set to 40 kV and 30 mA, respectively. The monochromator slit was set at 5 mm by 160 μm. […] Samples were prepared for analysis by packing them into thin-walled glass capillaries. Each capillary was mounted onto a goniometer head that is motorized to permit spinning of the capillary during data acquisition. The samples were analyzed for 300 sec. Instrument calibration was performed using a silicon reference standard.

[4] = Milling experiments for amorphous rifaximin; conditions: scraped sides
Procedure: (§1) Vapor stressing experiments were done on amorphous material from two preparations: lyophilization from p-dioxane:water 1:1 and crash precipitation from ethyl acetate with heptane. […] The majority of the stressed samples appeared as clear red solutions after 6 days. Those solutions were placed in vials of antisolvent for vapor diffusion. Dry and wet milling experiments were conducted on amorphous materials from the two preparations mentioned above. Amorphous materials were recovered from the dry milling experiments.
A solid sample of rifaximin was charged to a milling container with a milling ball. Samples were milled for 5 or 15 minute intervals (2×5 minutes, 2×15 minutes, and 3×15 minutes) at 30 Hz using a Retsch MM200 mixer mill. Solids were scraped from the sides of the vial after each interval.

[5] = Stressing of amorphous rifaximin (vapor stress, vapor diffusion); conditions: for form from vapor diffusion experiment: water as an antisolvent
Procedure: as §1

[6] = first amorphous sample of Table 3 (footnote c, 3436-54)
[7] = second amorphous sample of Table 3 (footnote d, 3436-55)

Compound: CO[C@H]1/C=C/O[C@@]2(C)Oc3c(C)c(O)c4c(O)c(c5c(nc6cc(C)ccn65)c4c3C2=O)NC(=O)/C(C)=C\C=C\[C@H](C)[C@H](O)[C@@H](C)[C@@H](O)[C@@H](C)[C@H](OC(C)=O)[C@@H]1C [Form α-dry, Rifaximin]
Post-MB XRPD / Final Form post moisture sorption/desorption ([1]; listed as α dry): α dry
XRPD Form [2]: α dry
XRPD Form ([2]; vac oven 60° C.): α dry
solid form after vacuum dried ([2]; listed as α dry): α dry
Final Form ([3]; 33% RH, 2 days): α
Final Form ([3]; 33% RH, 7 days): α
Final Form ([3]; 43% RH, 4 days): α + β
Final Form ([3]; 43% RH, 11 days): β + (α)
RH stability: solid form change after exposing to 58% RH ([3]; listed as α dry): β
RH stability: solid form change after exposing to 75% RH ([3]; listed as α dry): β
RH stability: solid form change after exposing to 94% RH ([3]; 94% RH): β

Compound: CO[C@H]1/C=C/O[C@@]2(C)Oc3c(C)c(O)c4c(O)c(c5c(nc6cc(C)ccn65)c4c3C2=O)NC(=O)/C(C)=C\C=C\[C@H](C)[C@H](O)[C@@H](C)[C@@H](O)[C@@H](C)[C@H](OC(C)=O)[C@@H]1C [Form β, Rifaximin, reference compound]
XRPD Form ([3]; P2O5, 4 days): α dry

Compound: CO[C@H]1/C=C/O[C@@]2(C)Oc3c(C)c(O)c4c(O)c(c5c(nc6cc(C)ccn65)c4c3C2=O)NC(=O)/C(C)=C\C=C\[C@H](C)[C@H](O)[C@@H](C)[C@@H](O)[C@@H](C)[C@H](OC(C)=O)[C@@H]1C [Form β-1, Rifaximin]
RH stability: solid form change after exposing to 58% RH ([3]; listed as β-1): β + pk
RH stability: solid form change after exposing to 75% RH ([3]; listed as β-1): β

Compound: CO[C@H]1/C=C/O[C@@]2(C)Oc3c(C)c(O)c4c(O)c(c5c(nc6cc(C)ccn65)c4c3C2=O)NC(=O)/C(C)=C\C=C\[C@H](C)[C@H](O)[C@@H](C)[C@@H](O)[C@@H](C)[C@H](OC(C)=O)[C@@H]1C [Form β-2, Rifaximin]
solid form after vacuum dried ([2]; listed as β-2): α dry
RH stability: solid form change ([3]; studied at 20% RH (footnote d)): α^d

Compound: CO[C@H]1/C=C/O[C@@]2(C)Oc3c(C)c(O)c4c(O)c(c5c(nc6cc(C)ccn65)c4c3C2=O)NC(=O)/C(C)=C\C=C\[C@H](C)[C@H](O)[C@@H](C)[C@@H](O)[C@@H](C)[C@H](OC(C)=O)[C@@H]1C [Form γ, Rifaximin, reference compound]
hygroscopicity [1]: hygroscopic
wt loss upon equilibration at 5% RH [1]: 2.4%

Compound: CO[C@H]1/C=C/O[C@@]2(C)Oc3c(C)c(O)c4c(O)c(c5c(nc6cc(C)ccn65)c4c3C2=O)NC(=O)/C(C)=C\C=C\[C@H](C)[C@H](O)[C@@H](C)[C@@H](O)[C@@H](C)[C@H](OC(C)=O)[C@@H]1C [Form ζ, Rifaximin]
solid form after vacuum dried [2]: η or and γ + η
XRPD Form / Final Form after stability chamber ([3]; 75% RH at 40° C., 1 day): ζ + γ^e

Compound: CO[C@H]1/C=C/O[C@@]2(C)Oc3c(C)c(O)c4c(O)c(c5c(nc6cc(C)ccn65)c4c3C2=O)NC(=O)/C(C)=C\C=C\[C@H](C)[C@H](O)[C@@H](C)[C@@H](O)[C@@H](C)[C@H](OC(C)=O)[C@@H]1C [Form η, Rifaximin]
solid form after vacuum dried ([2]; listed as η): η

Next, values leading:

XRPD Result after milling ([4]; sample source CP from EtOAc with heptane, 10 min. at 30 Hz): amor-
XRPD Result after milling ([4]; sample source lyophilization from p-dioxane: water 1:1, 10 min. at 30 Hz): amor-
DVS weight gain from 5-95% RH [1, 6]: 8.364% eight gain from 5-95%
DVS weight loss from 95-5% RH [1, 6]: 10.989% weight loss from 95-
wt loss upon equilibration at 5% RH ([1]; listed as Rifaximin Amorphous): 0.7% wt loss upon equilibration at 5% RH
DVS weight gain from 5-95% RH [1, 7]: 7.843% weight gain from 5-
DVS weight loss from 95-5% RH [1, 7]: 9.172% weight loss from 95-5%
Post-MB XRPD / Final Form post moisture sorption/desorption ([1]; listed as Amorphous): amorphous
Post-MB XRPD / Final Form post moisture sorption/desorption ([1]; listed as Amorphous rifaximin): amorphous
Post-MB XRPD / Final Form post moisture sorption/desorption ([1]; listed as Rifaximin Amorphous): amorphous
XRPD Result ([5]; DCM, VD w/ IPE, 11 days): amorphous
XRPD Result ([5]; MEK, VD w/ IPE, 11 days): amorphous
form from vapor diffusion experiment ([5]; methanol): Form β
form from vapor diffusion experiment ([5]; tetrahydrofuran): Form β
XRPD Result ([5]; toluene, VS, RT, 6 days, Amorphous Materials): amorphous
XRPD Result ([5]; toluene, VS, RT, 6 days, listed as amorphous material): no peaks
XRPD Result ([5]; water, VS, RT, 15 days): amorphous
form by XRPD analysis after storage ([3]; 58% RH for 8 days): remained amorphous
RH stability: solid form change after exposing to 58% RH [3]: am
RH stability: solid form change after exposing to 75% RH [3]: am
Compound: CO[C@H]1/C=C/O[C@@]2(C)Oc3c(C)c(O)c4c(O)c(c5c(nc6cc(C)ccn65)c4c3C2=O)NC(=O)/C(C)=C\C=C\[C@H](C)[C@H](O)[C@@H](C)[C@@H](O)[C@@H](C)[C@H](OC(C)=O)[C@@H]1C [amorphous, Rifaximin]

hygroscopicity [1]: moderately hygroscopic
Compound: CO[C@H]1/C=C/O[C@@]2(C)Oc3c(C)c(O)c4c(O)c(c5c(nc6cc(C)ccn65)c4c3C2=O)NC(=O)/C(C)=C\C=C\[C@H](C)[C@H](O)[C@@H](C)[C@@H](O)[C@@H](C)[C@H](OC(C)=O)[C@@H]1C [crash amorphous rifaximin, Rifaximin]

hygroscopicity [1]: moderately hygroscopic
Compound: CO[C@H]1/C=C/O[C@@]2(C)Oc3c(C)c(O)c4c(O)c(c5c(nc6cc(C)ccn65)c4c3C2=O)NC(=O)/C(C)=C\C=C\[C@H](C)[C@H](O)[C@@H](C)[C@@H](O)[C@@H](C)[C@H](OC(C)=O)[C@@H]1C [lyophilized amorphous rifaximin, Rifaximin]
